According to ChEMBL document CHEMBL3879915, “Methods of inhibiting PRMT5” (2014):

Columns and labels:
PRMT5/MEP50 complex = PRMT5/MEP50 complex (Homo sapiens, UniProt O14744); assay: Inhibition of recombinant human fetal brain FLAG-tagged PRMT5/full length human testis 6His-tagged MEP50 expressed in baculovirus infected insect Sf9 cells using human histone H4 (1 to 15 residues) as substrate preincubated for 30 mins followed by [3H]-SAM addition
[1] = molecular target: Protein arginine N-methyltransferase 5 (Homo sapiens, UniProt O14744); assay: Inhibition of PRMT5 in human Z138 cells assessed as decrease in di-methyl arginine levels after 96 hrs by Western blot method; format: cell-based
[2] = Antiproliferative activity against human Z138 cells assessed as inhibition of cell viability after 5 days by Cell-Titer Glo assay; format: functional, cell-based; conditions: Z-138, 120 h

Sequence of PRMT5/MEP50 complex (O14744 whole entry, the tested form may be a part): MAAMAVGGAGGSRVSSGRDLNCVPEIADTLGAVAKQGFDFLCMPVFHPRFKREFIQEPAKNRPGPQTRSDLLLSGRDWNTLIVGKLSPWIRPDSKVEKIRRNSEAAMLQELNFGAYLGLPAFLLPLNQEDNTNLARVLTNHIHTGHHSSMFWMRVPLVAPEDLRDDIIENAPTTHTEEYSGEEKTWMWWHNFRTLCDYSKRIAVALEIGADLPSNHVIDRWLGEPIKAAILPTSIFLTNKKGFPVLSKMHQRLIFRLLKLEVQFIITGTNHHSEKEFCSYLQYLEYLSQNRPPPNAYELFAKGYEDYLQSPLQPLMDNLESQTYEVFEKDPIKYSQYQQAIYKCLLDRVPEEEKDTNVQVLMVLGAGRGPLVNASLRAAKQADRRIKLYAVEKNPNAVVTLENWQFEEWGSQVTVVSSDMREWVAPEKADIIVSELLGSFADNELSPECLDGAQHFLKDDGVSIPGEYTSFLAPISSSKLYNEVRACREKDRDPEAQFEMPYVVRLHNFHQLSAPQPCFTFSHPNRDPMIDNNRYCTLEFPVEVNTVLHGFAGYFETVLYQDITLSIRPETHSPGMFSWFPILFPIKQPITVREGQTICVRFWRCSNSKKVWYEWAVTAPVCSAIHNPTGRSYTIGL
Sequence of PRMT5/MEP50 complex (Q9BQA1 whole entry, further chain, the tested form may be a part): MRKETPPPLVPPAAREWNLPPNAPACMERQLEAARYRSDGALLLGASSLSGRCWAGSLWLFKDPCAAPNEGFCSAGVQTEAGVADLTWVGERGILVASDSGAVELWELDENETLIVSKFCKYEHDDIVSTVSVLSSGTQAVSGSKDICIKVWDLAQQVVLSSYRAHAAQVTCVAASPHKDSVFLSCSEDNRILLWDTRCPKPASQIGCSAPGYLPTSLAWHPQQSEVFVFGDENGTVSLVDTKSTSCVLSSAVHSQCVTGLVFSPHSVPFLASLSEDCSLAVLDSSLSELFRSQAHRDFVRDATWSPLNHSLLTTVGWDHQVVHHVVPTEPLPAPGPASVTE
Sequence of Protein arginine N-methyltransferase 5 (O14744 whole entry): as the sequence (O14744 whole entry, the tested form may be a part) above

Row | SMILES | IC50 (PRMT5/MEP50 complex) [µM] | EC50 [1] [µM] | EC50 [2] [µM]
1 | O=C1CN(c2cccc(F)c2)CCN1CC(O)CN1CCc2ccccc2C1 (stereo not given) | < 0.1 | 0.101 to 1 | > 20
2 | O=C(NCC(O)CN1CCc2ccccc2C1)c1cccc(-c2cc[nH]n2)c1 (stereo not given) | < 0.1 | 0.101 to 1 | 1 to 10
3 | CC(Oc1cccc(CNC2CCCC2)c1)C(O)CN1CCc2ccccc2C1 (stereo not given) | 0.101 to 1 | 0.101 to 1 | 1 to 10
4 | CN1CCC(c2cccc(C(=O)NCC(O)CN3CCc4ccccc4C3)c2)C1 (stereo not given) | < 0.1 | 0.101 to 1 | 10 to 50
5 | COC(COc1cccc(CNC2CCCC2)c1)CN1CCc2ccccc2C1 (stereo not given) | 1 to 10 | > 20 | > 40
6 | NS(=O)(=O)c1cccc(C(=O)NCC(O)CN2CCc3ccccc3C2)c1 (stereo not given) | 0.101 to 1 | 0.101 to 1 | > 20
7 | CCN(c1cccc(C(=O)NCC(O)CN2CCc3ccccc3C2)c1C)C1CCOCC1 (stereo not given) | < 0.1 | < 0.1 | 1 to 10
8 | CN1CCc2cccc(OCC(=O)NCC(O)CN3CCc4ccccc4C3)c2C1 (stereo not given) | 0.101 to 1 | 1 to 10 | > 20
9 | Cc1c(NC2CCOCC2)cccc1C(=O)NCC(O)CN1CCc2ccccc2C1 (stereo not given) | < 0.1 | < 0.1 | 1 to 10
10 | CNS(=O)(=O)c1ccccc1OCC(=O)NCC(O)CN1CCc2ccccc2C1 (stereo not given) | < 0.1 | 0.101 to 1 | 1 to 10
11 | O=C1CN(c2ccc(Cl)cc2)CCN1CC(O)CN1CCc2ccccc2C1 (stereo not given) | < 0.1 | 0.101 to 1 | 10 to 50
12 | NS(=O)(=O)c1ccc(C(=O)NCC(O)CN2CCc3ccccc3C2)cc1 (stereo not given) | 0.101 to 1 | 0.101 to 1 | > 20
13 | Cn1nccc1-c1cccc(C(=O)NCC(O)CN2CCc3ccccc3C2)c1 (stereo not given) | < 0.1 | < 0.1 | 1 to 10
14 | O=C(NC[C@H](O)CN1CCc2ccccc2C1)c1cccc(-c2ccccn2)c1 | < 0.1 | < 0.1 | 0.101 to 1
15 | OC(COc1cccc(-c2ccccc2)c1)CN1CCc2ccccc2C1 (stereo not given) | 0.101 to 1 | 1 to 10 | > 20
16 | O=C(COc1ccccc1C1CCCNC1)NCC(O)CN1CCc2ccccc2C1 (stereo not given) | 0.101 to 1 | 0.101 to 1 | 1 to 10
17 | CN1CCC(c2ccccc2OCC(=O)NCC(O)CN2CCc3ccccc3C2)CC1 (stereo not given) | 0.101 to 1 | 1 to 10 | > 20
18 | O=C(COc1ccccc1-c1ncc[nH]1)NCC(O)CN1CCc2ccccc2C1 (stereo not given) | 0.101 to 1 | 1 to 10 | > 20

Row | SMILES | IC50 (PRMT5/MEP50 complex) [µM] | EC50 [1] [µM] | EC50 [2] [µM]
19 | CN(C)c1ncccc1OCC(=O)NCC(O)CN1CCc2ccccc2C1 (stereo not given) | 0.101 to 1 | 1 to 10 | > 20
20 | CC(=O)N1CCN(S(=O)(=O)c2ccccc2OCC(=O)NCC(O)CN2CCc3ccccc3C2)CC1 (stereo not given) | 0.101 to 1 | 1 to 10 | > 20
21 | O=C(NCC(O)CN1CCc2ccccc2C1)c1cccc(NC2CCOCC2)c1 (stereo not given) | < 0.1 | < 0.1 | 0.101 to 1
22 | CN1CCCC1c1cccc(C(=O)NCC(O)CN2CCc3ccccc3C2)c1 (stereo not given) | < 0.1 | 0.101 to 1 | 10 to 50
23 | O=C(NCC(O)CN1CCc2ccccc2C1)c1ccccn1 (stereo not given) | 0.101 to 1 | 0.101 to 1 | > 20
24 | Cn1cnc2ccc(-c3cccc(OCC(O)CN4CCc5ccccc5C4)c3)cc21 (stereo not given) | < 0.1 | 0.101 to 10 | 1 to 20
25 | O=C(NCC(O)CN1CCc2ccccc2C1)c1cccc(N2CCNCC2)c1 (stereo not given) | < 0.1 | 0.101 to 1 | 10 to 50
26 | CN(C)CCOc1cccc(C(=O)NCC(O)CN2CCc3ccccc3C2)c1 (stereo not given) | < 0.1 | 0.101 to 1 | 10 to 50
27 | O=c1cc(Nc2ccccc2)ccn1C[C@@H](O)CN1CCc2ccccc2C1 | 0.101 to 1 | 0.101 to 1 | > 20
28 | O=C1CN(c2cccc(N3CCOCC3)c2)CCN1CC(O)CN1CCc2ccccc2C1 (stereo not given) | < 0.1 | < 0.1 | 1 to 10
29 | O=C(NC[C@H](O)CN1CCc2ccccc2C1)c1ccccc1 | < 0.1 | < 0.1 | 1 to 10
30 | NC(=O)c1cccc(C(=O)NCC(O)CN2CCc3ccccc3C2)c1 (stereo not given) | 0.101 to 1 | 1 to 10 | > 20
31 | O=C(NC[C@@H](O)CN1CCc2ccccc2C1)c1cccc(NC2CCOCC2)c1 | 0.101 to 1 | 0.101 to 1 | 1 to 10
32 | CS(=O)(=O)Nc1cccc(C(=O)NCC(O)CN2CCc3ccccc3C2)c1 (stereo not given) | < 0.1 | 0.101 to 1 | 1 to 10
33 | O=C(NCC(O)CN1CCc2ccccc2C1)c1cccc(C2CCCN2)c1 (stereo not given) | 0.101 to 1 | 1 to 10 | > 20
34 | O=C(c1ccc(Cn2nccc2-c2ccc(OCC(O)CN3CCc4ccccc4C3)cc2)cc1)N1CCCC1 (stereo not given) | 0.101 to 1 | 1 to 10 | 10 to 40
35 | O=C(NCC(O)CN1CCc2ccccc2C1)c1ccccc1-c1ccccn1 (stereo not given) | 0.101 to 1 | 1 to 10 | > 20
